Laboratory results: US20240301409A1, “Chemically Modified Small Activating RNA” (RACTIGEN THERAPEUTICS, priority 2021, published 2024)

Test system: J82 cells
Assay: Cellular proliferation assay (CCK8) in J82 cells, combined with Mitomycin C or valrubicin
Assay type: cell-based, human
Method: J82 cells were transfected with RAG1-40-31 at concentrations of 0.1, 0.5, 1, 5, 10, 25 and 50 nM for 24 hours, and then Mitomycin C at concentrations of 1, 10, 100, 1000 and 10000 nM was added. The combined treatment was carried out with concentrations in pairs. After treatment, the proliferation of cells was detected using CCK8 kit. FIGS. 14A-14B show the relative proliferation proportion of J82 cells after the combined treatment with chemically modified saRNA RAG1-40-31 and valrubicin. […] Control and DMSO are the blank transfection control and the solvent for dilution control, respectively.
J82 cells were transfected with RAG1-40-31 at concentrations of 0.1, 0.5, 1, 5, 10, 25 and 50 nM for 24 hours, and then valrubicin at concentrations of 1, 10, 100, 1000 and 10000 nM was added. The combined treatment was carried out with concentrations in pairs. After treatment, the cellular proliferation was detected by CCK8 kit. FIGS. 15A-15B show the relative proliferation proportion of T24 cells after the combined treatment with chemically modified saRNA RAG1-40-31 and Mitomycin C. […] Control and DMSO are the blank transfection control and the solvent for dilution control, respectively.
Human bladder cancer cells Ku-7-LG (ATCC), J82 (ATCC) and T24 (ATCC) were cultured in McCoy medium (Gibco) comprising 10% calf serum (Sigma-Aldrich) and 1% penicillin/Streptomycin (Gibco). Cells were cultured at 37° C. under 5% CO2. Ku-7-LG, J82 and T24 cells were plated into 12-well plates at 10×10^4 cells per well, transfected with the small RNA at a concentration of 10 nM (unless otherwise specified) for three days, using RNAiMax (Invitrogen, Carlsbad, CA) according to the manufacturer's instructions. Two replicate wells were set for each treatment.
Cells were plated in a 96-well plate at 2˜4×10^3 cells/well, cultured overnight, and transfected with the oligonucleotide duplexes. Three days after transfection, CCK8 (Dojindo) was used to detect cellular proliferation following manufacturer's instructions. The experimental steps are briefly described as follows: 10 μL of CCK8 solution was added to each well, incubated at 37° C. for 1 hour, and then the absorbance at 450 nm was measured using a microplate reader.
In this example, chemically modified saRNA RAG1-40-31 was used in combination with clinical chemical agents to evaluate the suppressing effect of the combined agents on cancer cells.

RAG1-40-31: saRNA duplex: sense fCfCAACUCAUUCUCCAAG*U*C (SEQ ID NO 16); antisense U*A*fCfUfUGGAGAAfUGAGfUfUGG*fC*A (SEQ ID NO 12) (sense CCAACUCAUUCUCCAAGUC; antisense UACUUGGAGAAUGAGUUGGCA; 2'-F and phosphorothioate modifications; modified_base (1)..(2) (1,2)=2′-fluoro; modified_base (17)..(19) (17,18,19)=phosphorothioate (PS) backbone modification; modified_base (2)..(21) (2,3,19,20,21)=phosphorothioate (PS) backbone modification; modified_base (3)..(20) (3,4,5,12,16,17,20)=2′-fluoro)
Relative proliferation proportion of J82 cells (RAG1-40-31 0.1 nM + MMC 10000 nM): 1.5% | Relative proliferation proportion of J82 cells (RAG1-40-31 0.1 nM + valrubicin 1 nM): 71.0% | Relative proliferation proportion of J82 cells (RAG1-40-31 0.1 nM + valrubicin 10 nM): 58.2% | Relative proliferation proportion of J82 cells (RAG1-40-31 0.1 nM + valrubicin 100 nM): 73.2% | Relative proliferation proportion of J82 cells (RAG1-40-31 0.1 nM + valrubicin 1000 nM): 26.9% | Relative proliferation proportion of J82 cells (RAG1-40-31 0.1 nM + valrubicin 10000 nM): 9.9% | Relative proliferation proportion of J82 cells (RAG1-40-31 0.1 nM, Control (no MMC)): 97.9% | Relative proliferation proportion of J82 cells (RAG1-40-31 0.1 nM, Control (no valrubicin)): 85.1% | Relative proliferation proportion of J82 cells (RAG1-40-31 0.5 nM + MMC 1 nM): 70.1% | Relative proliferation proportion of J82 cells (RAG1-40-31 0.5 nM + MMC 10 nM): 69.3% | Relative proliferation proportion of J82 cells (RAG1-40-31 0.5 nM + MMC 100 nM): 34.9% | Relative proliferation proportion of J82 cells (RAG1-40-31 0.5 nM + MMC 1000 nM): 10.8% | Relative proliferation proportion of J82 cells (RAG1-40-31 0.5 nM + MMC 10000 nM): 0.9% | Relative proliferation proportion of J82 cells (RAG1-40-31 0.5 nM + valrubicin 1 nM): 62.4% | Relative proliferation proportion of J82 cells (RAG1-40-31 0.5 nM + valrubicin 10 nM): 54.1% | Relative proliferation proportion of J82 cells (RAG1-40-31 0.5 nM + valrubicin 100 nM): 72.8% | Relative proliferation proportion of J82 cells (RAG1-40-31 0.5 nM + valrubicin 1000 nM): 24.4% | Relative proliferation proportion of J82 cells (RAG1-40-31 0.5 nM + valrubicin 10000 nM): 7.7% | Relative proliferation proportion of J82 cells (RAG1-40-31 0.5 nM, Control (no MMC)): 89.9% | Relative proliferation proportion of J82 cells (RAG1-40-31 0.5 nM, Control (no valrubicin)): 77.8% | Relative proliferation proportion of J82 cells (RAG1-40-31 1 nM + MMC 1 nM): 55.8% | Relative proliferation proportion of J82 cells (RAG1-40-31 1 nM + MMC 10 nM): 57.2% | Relative proliferation proportion of J82 cells (RAG1-40-31 1 nM + MMC 100 nM): 30.1% | Relative proliferation proportion of J82 cells (RAG1-40-31 1 nM + MMC 1000 nM): 9.3% | Relative proliferation proportion of J82 cells (RAG1-40-31 1 nM + MMC 10000 nM): 1.4% | Relative proliferation proportion of J82 cells (RAG1-40-31 1 nM + valrubicin 1 nM): 59.8% | Relative proliferation proportion of J82 cells (RAG1-40-31 1 nM + valrubicin 10 nM): 51.6% | Relative proliferation proportion of J82 cells (RAG1-40-31 1 nM + valrubicin 100 nM): 54.4% | Relative proliferation proportion of J82 cells (RAG1-40-31 1 nM + valrubicin 1000 nM): 22.7% | Relative proliferation proportion of J82 cells (RAG1-40-31 1 nM + valrubicin 10000 nM): 7.5% | Relative proliferation proportion of J82 cells (RAG1-40-31 1 nM, Control (no MMC)): 79.8% | Relative proliferation proportion of J82 cells (RAG1-40-31 1 nM, Control (no valrubicin)): 73.9% | Relative proliferation proportion of J82 cells (RAG1-40-31 5 nM + MMC 1 nM): 42.8% | Relative proliferation proportion of J82 cells (RAG1-40-31 5 nM + MMC 10 nM): 40.8% | Relative proliferation proportion of J82 cells (RAG1-40-31 5 nM + MMC 100 nM): 26.2% | Relative proliferation proportion of J82 cells (RAG1-40-31 5 nM + MMC 1000 nM): 7.2% | Relative proliferation proportion of J82 cells (RAG1-40-31 5 nM + MMC 10000 nM): 1.2% | Relative proliferation proportion of J82 cells (RAG1-40-31 5 nM + valrubicin 1 nM): 37.9% | Relative proliferation proportion of J82 cells (RAG1-40-31 5 nM + valrubicin 10 nM): 46.6% | Relative proliferation proportion of J82 cells (RAG1-40-31 5 nM + valrubicin 100 nM): 50.9% | Relative proliferation proportion of J82 cells (RAG1-40-31 5 nM + valrubicin 1000 nM): 22.6% | Relative proliferation proportion of J82 cells (RAG1-40-31 5 nM + valrubicin 10000 nM): 5.5% | Relative proliferation proportion of J82 cells (RAG1-40-31 5 nM, Control (no MMC)): 59.3% | Relative proliferation proportion of J82 cells (RAG1-40-31 5 nM, Control (no valrubicin)): 58.4% | Relative proliferation proportion of J82 cells (RAG1-40-31 10 nM + MMC 1 nM): 37.0% | Relative proliferation proportion of J82 cells (RAG1-40-31 10 nM + MMC 10 nM): 37.7% | Relative proliferation proportion of J82 cells (RAG1-40-31 10 nM + MMC 100 nM): 22.2% | Relative proliferation proportion of J82 cells (RAG1-40-31 10 nM + MMC 1000 nM): 6.9% | Relative proliferation proportion of J82 cells (RAG1-40-31 10 nM + MMC 10000 nM): 1.0% | Relative proliferation proportion of J82 cells (RAG1-40-31 10 nM + valrubicin 1 nM): 33.1% | Relative proliferation proportion of J82 cells (RAG1-40-31 10 nM + valrubicin 10 nM): 37.1% | Relative proliferation proportion of J82 cells (RAG1-40-31 10 nM + valrubicin 100 nM): 40.4% | Relative proliferation proportion of J82 cells (RAG1-40-31 10 nM + valrubicin 1000 nM): 20.3% | Relative proliferation proportion of J82 cells (RAG1-40-31 10 nM + valrubicin 10000 nM): 4.3% | Relative proliferation proportion of J82 cells (RAG1-40-31 10 nM, Control (no MMC)): 48.9% | Relative proliferation proportion of J82 cells (RAG1-40-31 10 nM, Control (no valrubicin)): 50.6% | Relative proliferation proportion of J82 cells (RAG1-40-31 25 nM + MMC 1 nM): 20.8% | Relative proliferation proportion of J82 cells (RAG1-40-31 25 nM + MMC 10 nM): 25.7% | Relative proliferation proportion of J82 cells (RAG1-40-31 25 nM + MMC 100 nM): 17.2% | Relative proliferation proportion of J82 cells (RAG1-40-31 25 nM + MMC 1000 nM): 5.0% | Relative proliferation proportion of J82 cells (RAG1-40-31 25 nM + MMC 10000 nM): 0.4% | Relative proliferation proportion of J82 cells (RAG1-40-31 25 nM + valrubicin 1 nM): 26.1% | Relative proliferation proportion of J82 cells (RAG1-40-31 25 nM + valrubicin 10 nM): 23.9% | Relative proliferation proportion of J82 cells (RAG1-40-31 25 nM + valrubicin 100 nM): 26.3% | Relative proliferation proportion of J82 cells (RAG1-40-31 25 nM + valrubicin 1000 nM): 13.3% | Relative proliferation proportion of J82 cells (RAG1-40-31 25 nM + valrubicin 10000 nM): 2.7% | Relative proliferation proportion of J82 cells (RAG1-40-31 25 nM, Control (no MMC)): 38.4% | Relative proliferation proportion of J82 cells (RAG1-40-31 25 nM, Control (no valrubicin)): 45.6% | Relative proliferation proportion of J82 cells (RAG1-40-31 50 nM + MMC 1 nM): 25.9% | Relative proliferation proportion of J82 cells (RAG1-40-31 50 nM + MMC 10 nM): 25.8% | Relative proliferation proportion of J82 cells (RAG1-40-31 50 nM + MMC 100 nM): 13.9% | Relative proliferation proportion of J82 cells (RAG1-40-31 50 nM + MMC 1000 nM): 3.4% | Relative proliferation proportion of J82 cells (RAG1-40-31 50 nM + MMC 10000 nM): 0.6% | Relative proliferation proportion of J82 cells (RAG1-40-31 50 nM + valrubicin 1 nM): 19.7% | Relative proliferation proportion of J82 cells (RAG1-40-31 50 nM + valrubicin 10 nM): 21.4% | Relative proliferation proportion of J82 cells (RAG1-40-31 50 nM + valrubicin 100 nM): 23.9% | Relative proliferation proportion of J82 cells (RAG1-40-31 50 nM + valrubicin 1000 nM): 14.8% | Relative proliferation proportion of J82 cells (RAG1-40-31 50 nM + valrubicin 10000 nM): 3.2% | Relative proliferation proportion of J82 cells (RAG1-40-31 50 nM, Control (no MMC)): 34.8% | Relative proliferation proportion of J82 cells (RAG1-40-31 50 nM, Control (no valrubicin)): 33.5%
